Results reported in patent US11932655B1, “12-bromo-2,16-dioxapentacyclo[7.7.5.01,21.03,8.010,15]henicosa3(8),10,12,14-tetraene-7,20-dione as an antimicrobial compound” (KING FAISAL UNIVERSITY, priority 2023, dated 2024).

What was measured:
Experiment in all cases: Antimicrobial activity, agar dilution, exposure-time test
Assay type in all cases: cell-based
Settings in all cases: after 10, 20, 40 and 60 minutes at all dilutions 1:100 to 1:800
Staphylococcus aureus = test system: Staphylococcus aureus
Description: (§1) The antibacterial properties of the synthesized compound of 12-bromo-2,16-dioxapentacyclo[7.7.5.0^1,21.0^3,8.0^10,15]henicosa3(8),10,12,14-tetraene-7,20-dione were studied by the method of agar dilution. Test solutions of each compound was prepared in concentration of 1% using dimethylformamide as a solvent. Then they were diluted in physiological solution to obtain the final experimental dilutions of 1:100, 1:200, 1:400, and 1:800. The effect of these substances were compared with furacillin in a controllable study. The testing microbes used were gram positive bacteria Staphylococcus aureus, gram negative bacteria Pseudomonas aeruginosa, Escherichia coli, and Candida albicans fungus. The experiments used for this survey were meat-pentonlu agar (EPA) for cultivation of bacteria and Saburo environment for fungi. Each experiment used 1 mL of test solution on each plate for 500 minutes. Two drops of emulsified with microbes feel were added. All experimental samples were taken from the agar after 10, 20, 40, 60 minutes in the environment on the basis of Patrk planted. Bacteria were cultivated at a temperature of 37° C. for 1 day and the mushroom was kept in a thermostat for […] at a temperature of 28° C. Then results were checked. Those of the control and the antimicrobial activity for the synthesized compounds are listed in Table 1 below, with furacillin serving as a reference.

Candida albicans = test system: Candida albicans
Description: as §1

Pseudomonas aeruginosa = test system: Pseudomonas aeruginosa
Description: as §1

Escherichia coli = test system: Escherichia coli
Description: as §1

Measured: inhibition activity compared with Furacilin

O=C1CCCC2=C1C1c3cc(Br)ccc3OC3(CCCC(=O)C13)O2 (stereo not shown) [12-bromo-2,16-dioxapentacyclo[7.7.5.0^1,21.0^3,8.0^10,15]henicosa3(8),10,12,14-tetraene-7,20-dione]
higher inhibition activity: Staphylococcus aureus | Candida albicans | Pseudomonas aeruginosa | Escherichia coli
